The values below come from article PMC9358002, “Synthesis and Discovery of Ligustrazine–Heterocycle Derivatives as Antitumor Agents” (Frontiers in Chemistry, 2022).

Common to all, as to format: cell-based
Experiment [1] has as its system human breast cancer MCF-7. Briefly: MTT antiproliferative assay, MCF-7. Conditions: Homo sapiens, MCF7, 48 h, 0–50 μM, read-out: Antiproliferative activity IC50 ± SEM, MCF-7. On the procedure: (§1) The in vitro antiproliferative activity of 33 TMPH compounds was evaluated by MTT assay ([Medica et al., 2022]). Five types of TNBC-related cell lines (human breast cancer MCF-7 and MDA-MB-231, mouse breast cancer 4T1, mouse fibroblast L929, and human umbilical vein endothelial HUVEC cell lines) were used. The cell lines were obtained from the Shanghai Institute of Biochemistry and Cell Biology of the Chinese Academy of Sciences (Shanghai, China). The cell lines were cultured in DMEM supplemented with 1% penicillin–streptomycin solution (100×) and 10% FBS at 37°C under a humid atmosphere containing 5% CO2. After cell passage, cryopreservation, and resuscitation, the growth-inhibitory effects against the five cell lines were determined by MTT assay. The 33 TMPH compounds and the reference control drug cisplatin were dissolved in 0.1% DMSO solution. The cell lines were maintained in 96-well plates and subjected to each test compound (0–50 μM) at 37°C for 48 h. After treatment with 1 mg/ml MTT solution for 4 h, the formazan crystals were dissolved in each well. A microplate reader (Varioskan Flash 3001, Thermo Scientific) was used to determine the cell viability at 490 nm, and each experiment was repeated four times. The collected data were expressed as the mean ± SEM. The inhibitory concentration of the 34 compounds at 50% (IC50) was calculated via concentration–inhibition relationship regression by SPSS software.
A general note: Formazan colour is commonly taken as a measure of viable cells.

The test system of experiment [2] is human breast cancer MDA-MB-231. Briefly: MTT antiproliferative assay, MDA-MB-231. Conditions: for IC50: Homo sapiens, MDA-MB-231, MTT, 48 h, 0–50 μM, read-out: Antiproliferative activity IC50 ± SEM, MDA-MB-231; for SI, selectivity index: SI = IC50 (L929)/IC50 (MDA-MB-231). As for the experimental part:
as §1

The subject of experiment [3] is mouse breast cancer 4T1. Kind of experiment: MTT antiproliferative assay, 4T1. The note with it: Mus musculus, 48 h, 0–50 μM, read-out: Antiproliferative activity IC50 ± SEM, 4T1. As for the experimental part: as §1
Experiment [4] concerns mouse fibroblast L929. Kind of experiment: MTT antiproliferative assay, L929. Conditions: Mus musculus, L929, 48 h, 0–50 μM, read-out: Antiproliferative activity IC50 ± SEM, L929. On the procedure: as §1
Experiment [5] relates to human umbilical vein endothelial HUVEC. Kind of experiment: MTT antiproliferative assay, HUVEC. The note with it: Homo sapiens, HUVEC, 48 h, 0–50 μM, read-out: Antiproliferative activity IC50 ± SEM, HUVEC. As for the experimental part: as §1
Experiment [6] has as its system MCF-7, MDA-MB-231, 4T1, L929 and HUVEC cell lines. Kind of experiment: MTT antiproliferative assay, statements over all five tested cell lines. Conditions: range over all five tested cell lines, read-out: IC50 values ranging over the tested cell lines. On the procedure: as §1

As usually defined, the IC50 is the concentration at which inhibition is half-maximal. For `Cc1nc(C)c(C(=O)NCCCCCCCCCCNC(=O)c2ccc3cc[nH]c3c2)nc1C` [10–9], the half-inhibitory concentration (IC50) was 3.37 ± 0.19 µM in experiment [1]; 6.01 ± 0.11 µM in experiment [2]; 3.12 ± 0.14 µM in experiment [3]; 7.37 ± 0.57 µM in experiment [4]; 9.63 ± 0.53 µM in experiment [5]; 1.61 to 19.5 µM in experiment [6]. For the same compound, the “SI, selectivity index” value in experiment [2] came to 1.23.

As to `Cc1nc(C)c(C(=O)NCCCCCCCCCCNC(=O)c2ccc3ccccc3c2)nc1C` [10–13], the 50% inhibitory concentration (IC50) was 3.09 ± 0.13 µM in experiment [1]; 4.6 ± 0.29 µM in experiment [2]; 9.88 ± 0.22 µM in experiment [3]; 12.64 ± 0.12 µM in experiment [4]; 10.5 ± 1.24 µM in experiment [5]; 1.61 to 19.5 µM in experiment [6]. Besides, the “SI, selectivity index” value in experiment [2] is 2.75.

Consider `Cc1nc(C)c(C(=O)NCCCCCCCCCCCCNC(=O)C=Cc2ccccc2)nc1C` [12–1], for which the concentration for half-maximal inhibition (IC50) in experiment [1] is 1.95 ± 0.06 µM; in experiment [2] it was 2.78 ± 0.37 µM; in experiment [3] it was 2.66 ± 0.05 µM; in experiment [4] it was 4.75 ± 0.26 µM; in experiment [5], 13.2 ± 1.12 µM; in experiment [6] it was 1.61 to 19.5 µM. Besides, the “SI, selectivity index” value in experiment [2] is given as 1.71.

Take `Cc1nc(C)c(C(=O)NCCCCCCCCCCCCNC(=O)c2cc3ccccc3o2)nc1C` [12–2]: the IC50 in experiment [1] is 2.71 ± 0.07 µM; in experiment [2] it was 3.38 ± 0.12 µM; in experiment [3], 3.97 ± 0.01 µM; in experiment [4], 3.78 ± 0.14 µM; in experiment [5] it was 11 ± 0.68 µM; in experiment [6], 1.61 to 19.5 µM. The “SI, selectivity index” value in experiment [2] was determined as 1.12.

Take `Cc1nc(C)c(C(=O)NCCCCCCCCCCCCNC(=O)c2cc3ccccc3s2)nc1C` [12–3]: the concentration for half-maximal inhibition (IC50) is 3.26 ± 0.16 µM in experiment [1]; 2.12 ± 0.06 µM in experiment [2]; 5.13 ± 0.28 µM in experiment [3]; 7.65 ± 0.06 µM in experiment [4]; 7.86 ± 0.01 µM in experiment [5]; 1.61 to 19.5 µM in experiment [6]. In addition, the “SI, selectivity index” value in experiment [2] worked out at 3.61.

On to `Cc1nc(C)c(C(=O)NCCCCCCCCCCCCNC(=O)c2cnc3ccccc3c2)nc1C` [12–5], for which the IC50 in experiment [1] was 1.36 ± 0.06 µM; in experiment [2] it was 2.39 ± 0.12 µM; in experiment [3], 3.5 ± 0.06 µM; in experiment [4], 4.18 ± 0.05 µM; in experiment [5] it was 11.4 ± 0.44 µM; in experiment [6], 1.61 to 19.5 µM. Moreover, the “SI, selectivity index” value in experiment [2] is listed as 1.75.

In the case of `Cc1nc(C)c(C(=O)NCCCCCCCCCCCCNC(=O)c2ccc3ncccc3c2)nc1C` [12–6], the IC50 in experiment [1] is 2.04 ± 0.03 µM; in experiment [2], 1.98 ± 0.15 µM; in experiment [3] it was 4.18 ± 0.09 µM; in experiment [4], 5.35 ± 0.17 µM; in experiment [5], 7.03 ± 0.05 µM; in experiment [6], 1.61 to 19.5 µM. Also, the “SI, selectivity index” value in experiment [2] stood at 2.70.

As for `Cc1nc(C)c(C(=O)NCCCCCCCCCCCCNC(=O)C=Cc2ccc(Cl)cc2)nc1C` [12–10], the half-inhibitory concentration (IC50) in experiment [1] is 2.09 ± 0.06 µM; in experiment [2], 2.42 ± 0.06 µM; in experiment [3] it was 1.63 ± 0.03 µM; in experiment [4], 3.82 ± 0.07 µM; in experiment [5], 12.37 ± 0.09 µM; in experiment [6], 1.61 to 19.5 µM. Besides, the “SI, selectivity index” value in experiment [2] is listed as 1.58.

As to `COc1cc(C=CC(=O)NCCCCCCCCCCCCNC(=O)c2nc(C)c(C)nc2C)cc(OC)c1OC` [12–12], the IC50 is 2.21 ± 0.15 µM in experiment [1]; 1.64 ± 0.12 µM in experiment [2]; 2.69 ± 0.04 µM in experiment [3]; 18.9 ± 0.44 µM in experiment [4]; 12.2 ± 0.2 µM in experiment [5]; 1.61 to 19.5 µM in experiment [6]. For the same compound, in experiment [2], the “SI, selectivity index” value is recorded as 11.50.

Turning to `Cc1nc(C)c(C(=O)NCCCCCCCCCCCCNC(=O)c2ccc3ccccc3c2)nc1C` [12–13], the IC50 was 1.61 ± 0.08 µM in experiment [1]; 5.01 ± 0.16 µM in experiment [2]; 4.76 ± 0.45 µM in experiment [3]; 8.89 ± 0.12 µM in experiment [4]; 10.7 ± 1.06 µM in experiment [5]; 1.61 to 19.5 µM in experiment [6]. Further, the “SI, selectivity index” value in experiment [2] was 1.77.
